Experiments:
[1] = Liver microsome stability in 4 species: monkey; type: in vitro ADME; settings: substrate 0.5 uM, microsome 0.25 mg/mL
Protocol: (§1) In a separate experiment as exemplified in Table 3, the stability of the current Example 1 and the comparator Compound #290 in incubations with microsome preparations from 4 different species were also determined (Note 5).
(§2) X. S. Tong, et. al., J. of Chromatography, 2006, 833, 165.

human CYP-3A4 enzyme = assay: P450 CYP-3A4 induction; type: in vitro ADME; settings: test compound 10 μM vs Rifampicin 10 μM (defined as 100%)
Protocol: This assay measured the in vitro induction of the human CYP-3A4 enzyme in the presence of 0.37, 1.11, 3.33, 10 and 30 μM test compound in an automated formate. The results are expressed as the relative percent induction measured for test compound at the 10 μM concentration compared to the known inducer standard Rifampicin at 10 μM (defined as 100%). (See Durocher, et. al., Anal. Biochem. 2000, 284, 316 for details of the assay).

[2] = Liver microsome stability in 4 species: human; type: in vitro ADME; settings: substrate 0.5 uM, microsome 0.25 mg/mL
Protocol: as §1, §2

[3] = Rat 7 day oral dose limiting toxicity assessment; type: in vivo; settings: for mortality: 750 mpk dose group, n=5 per group; for NO Effect Level (NOEL): in vivo, po, 7 days; for Dose limiting toxicity assessment, 25 mpk: p.o. 25 mg per kg per day for 7 days; for Dose limiting toxicity assessment, 25 mpk / Dose limiting toxicity assessment, 100 mpk / Dose limiting toxicity assessment, 750 mpk: mono-L-malic acid salts; for Dose limiting toxicity assessment, 100 mpk: p.o. 100 mg per kg per day for 7 days; for Dose limiting toxicity assessment, 750 mpk: p.o. 750 mg per kg per day for 7 days; for physical signs of toxicity: p.o. 100 mpk dose for 7 days
Protocol: The observations summarized in Table 8 indicate that both Example 1 and Compound #290 have the same NO Effect Level in a Dose Limiting Toxicity assay in the rat (NOEL=100 mpk/day for 7 days for both) (Note 11), and would argue against the use of higher doses of Compound #290 to achieve the same plasma exposure as Example 1 in the clinic.
Example 1 and Compound #290 as their mono-L-malic acid salts were formulated in 0.5% Methocel and dosed p.o. at 25, 100 and 750 mg per k per day (free base equivalent) for 7 days (n=5 animals in each group). During the dosing period observation of any physical signs of toxicity were noted. Upon termination on day 8, a standard battery of blood chemistry and tissue analyses were performed and evaluated for significant effects compared to vehicle controls. […] At the 750 mpk dose level several adverse effects were observed including mortality (⅖ for Example 1 on Day 7 and 8 in the 750 mpk dose group; ⅕ on day 4 for Compound #290 in the 750 mpk dose group).

[4] = target: T1, Human Leukocyte Elastase (HLE) (Homo sapiens, UniProt P08246); assay: HLE time-dependent inactivation assay, purified elastase; type: biochemical; settings: purified elastase 3 nM; inhibitor 26.5 nM; substrate 1 mM
T1 construct: The PMN lysates were prepared by isolating human neutrophils from whole blood; from tissue; host or cells: human neutrophils (PMN) isolated from whole blood, lysed by sonication in PBS
T1 sequence (P08246 30-267): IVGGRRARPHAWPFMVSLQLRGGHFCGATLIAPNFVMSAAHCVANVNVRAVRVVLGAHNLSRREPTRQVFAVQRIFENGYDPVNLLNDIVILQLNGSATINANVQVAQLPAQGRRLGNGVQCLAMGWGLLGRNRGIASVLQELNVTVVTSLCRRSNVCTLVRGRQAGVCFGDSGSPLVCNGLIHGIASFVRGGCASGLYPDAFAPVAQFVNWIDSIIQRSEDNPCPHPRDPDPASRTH
Protocol: As exemplified in Table 1, the Examples 1-6 of this application were determined to be potent, mechanism-based inactivators of Human Leukocyte Elastase (HLE) in two different in vitro time-dependent incubation assays. The two assays are described at the end of this Biological Data Section in Note 1. See the literature references in Note 2 for a discussion of the mechanism for this type of beta-lactam inactivation of HLE. Two sources of enzyme were used; either purified elastase or crude extracts of human polymorphonuclear leukocytes (PMN) containing elastase activity. […] For the compound of Example 1, the results were 638,000 M^−1 sec^−1 (average of n=3) and 809,000 M^−1 sec^−1 (n=4), respectively, and for Example 3, 804,000 M^−1 sec^−1 (average of n=4) and 952,000 M^−1 sec^−1 (n=5). […] Note that in this assay, head-to-head comparisons are particularly valuable.
Note 1: Enzyme Assays for the Inhibition of Human Polymorphonuclear Leukocyte Elastase Via Hydrolysis of N-Methyoxysuccinyl-alanyl-alanyl-prolylalanine-p-nitroanilide Reagent.
Prepare substrate by first dissolving in DMSO to 30 mg/ml (50 mM). Further dilute the substrate to 10 mM and add 25 μl to a final volume of 250 μl for a final concentration of 1 mM in the assay.
Prepare the enzyme in TES Buffer (0.045M TES (N-tris[hydroxymethyl]methyl-2-mino-ethanesulfonic acid), 0.45 M NaCl, pH 7.5.). Two sources of enzyme were used; either crude extracts of human polymorphonuclear leukocytes (PMN) containing elastase activity or purified elastase. The PMN lysates were prepared by isolating human neutrophils from whole blood after dextran sedimentation, ficoll density separation and red blood cell lysis. The neutrophils were lysed in PBS with sonciation and the concentration of active enzyme was determined by utilizing a standard curve of purified enzyme. For the purified elastase, the enzyme was resuspended at 10 mg/ml (˜340 μM) in 0.02M NaOAc, 50% glycerol. For both the PMN lysate and purified enzyme, a further dilution of enzyme was made to 30 nM and 25 μl was added to a final volume of 250 μl. The final concentration of enzyme in the assay was 3 nM.
The inhibitors to be tested were dissolved in DMSO at 10 mM. Directly before use, the inhibitors were further diluted into TES Buffer to 265 nM and […] was added to a final volume of 250 μl. The final concentration of inhibitor in the assay was 26.5 nM.
In a 96-well plate (flat bottom, polystyrene) 175 μl TES Buffer, 25 μl substrate, 25 μl inhibitor and 25 μl enzyme were added. After thoroughly mixing, the plate was then read in a spectrophotometer at 410 nm for 30 minutes counting every 10 seconds. Results were expressed as Kinact/Ki which is the second order rate constant in per mole per second for inactivation of the enzyme.

CYP3A4 = CYP3A4 (Homo sapiens, UniProt P08684)
Sequence of CYP3A4 (P08684 whole entry): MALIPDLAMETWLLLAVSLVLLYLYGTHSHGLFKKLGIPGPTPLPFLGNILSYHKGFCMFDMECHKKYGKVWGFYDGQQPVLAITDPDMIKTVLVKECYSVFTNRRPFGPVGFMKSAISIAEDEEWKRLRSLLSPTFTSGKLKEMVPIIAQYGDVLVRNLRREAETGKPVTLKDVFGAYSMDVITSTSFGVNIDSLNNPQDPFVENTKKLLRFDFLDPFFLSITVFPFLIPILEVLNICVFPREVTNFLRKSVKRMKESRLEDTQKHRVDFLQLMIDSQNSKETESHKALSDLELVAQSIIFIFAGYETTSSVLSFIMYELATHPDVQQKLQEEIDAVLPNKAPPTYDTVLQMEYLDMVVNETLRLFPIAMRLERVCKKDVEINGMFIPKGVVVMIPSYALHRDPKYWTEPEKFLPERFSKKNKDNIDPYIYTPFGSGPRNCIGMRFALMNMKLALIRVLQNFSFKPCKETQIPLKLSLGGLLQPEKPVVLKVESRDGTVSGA
Protocol: This assay measured the pre-incubation time-dependent inhibition of potential CYP-3A4 inhibitors in human liver microsomes using the CYP-3A4 mediated testosterone 6-beta-hydroxylation formate in the presence of test compounds in a semi-automated screening using LC-MS/MS detection. Test compounds are pre-incubated at 37° C. with human liver microsomes (2.5 mg/mL protein) and a NADPH regenerating system for 10, 20, 30 and 40 minutes prior to a ten-fold dilution with a 250 μM solution of testosterone. The diluted reaction is then incubated for 15 minutes at 37° C. The concentration of 6-β-hydroxytestosterone metabolite formed is measured by LC-MS/MS using validated analytical methods. The percent activity remaining is calculated by comparing the amount of marker metabolite formed in the presence of inhibitor compared to no inhibitor control samples at corresponding time points. No inhibitor control samples represent the maximum amount of 6-β-hydroxytestosterone formed under these assay conditions.

## CCC[C@@H](NC(=O)N1C(=O)C(CC)(CC)[C@@H]1Oc1ccc(C(=O)N(C)CCN(C)C)cc1)c1ccc(OC)cc1 [Compound #290, reference compound]
[1]
  % Left @ 30 min: 90%
  % Left @ 60 min: 67%
Human CYP-3A4 enzyme
  CYP-3A4 Induction % of Rifampicin response @ 10 μM: 6%
[2]
  % Left @ 30 min: 93%
  % Left @ 60 min: 88%
[3]
  mortality: ⅕
  NO Effect Level (NOEL): 100 mpk/day
  Dose limiting toxicity assessment, 750 mpk: Significant toxicity observed
  physical signs of toxicity: salivation
[3]; 25 mg/kg
  Dose limiting toxicity assessment, 25 mpk: no adverse effects
[3]; 100 mg/kg
  Dose limiting toxicity assessment, 100 mpk: no adverse effects
[4]
  kinact/KI: 523000 M⁻¹ s⁻¹
CYP3A4
  P450 CYP-3A4 Time-Dependent Inhibition rate @ 10 μM (#1): 0.017 min⁻¹
  P450 CYP-3A4 Time-Dependent Inhibition rate @ 10 μM (#2): 0.008 min⁻¹
  P450 CYP-3A4 Time-Dependent Inhibition rate @ 50 μM: 0.018 min⁻¹

## CCC[C@@H](NC(=O)N1C(=O)C(CC)(CC)[C@@H]1Oc1ccc(C(=O)N(CC)CCN(C)C)cc1)c1ccc(OC(F)(F)F)cc1 [Example 1, 2-(S)-[4-(((2-(Dimethylamino)ethyl)ethylamino)carbonyl)phenoxy]-3,3-diethyl-N-[1-(R)-(4-(trifluoromethoxy)phenyl)butyl]-4-oxo-1-azetidinecarboxamide]
[1]
  % Left @ 30 min: 91%
  % Left @ 60 min: 77%
Human CYP-3A4 enzyme
  CYP-3A4 Induction % of Rifampicin response @ 10 μM: 5%
[2]
  % Left @ 30 min: 92%
  % Left @ 60 min: 92%
[3]
  mortality: ⅖
  NO Effect Level (NOEL): 100 mpk/day
  Dose limiting toxicity assessment, 750 mpk: Significant toxicity observed
  physical signs of toxicity: salivation
[3]; 25 mg/kg
  Dose limiting toxicity assessment, 25 mpk: no adverse effects
[3]; listed as xample 1, 25 mg/kg
  Dose limiting toxicity assessment, 25 mpk: No effects
[3]; 100 mg/kg
  Dose limiting toxicity assessment, 100 mpk: no adverse effects
[3]; listed as xample 1, 100 mg/kg
  Dose limiting toxicity assessment, 100 mpk: No effects
[4]
  kinact/KI: 638000 M⁻¹ s⁻¹
CYP3A4
  P450 CYP-3A4 Time-Dependent Inhibition rate @ 10 μM (#1): 0.005 min⁻¹
  P450 CYP-3A4 Time-Dependent Inhibition rate @ 10 μM (#2): 0.008 min⁻¹
  P450 CYP-3A4 Time-Dependent Inhibition rate @ 50 μM: 0.018 min⁻¹

## CCC[C@@H](NC(=O)N1C(=O)C(CC)(CC)[C@@H]1Oc1ccc(C(=O)N(CC)CCN(C)C)cc1)c1ccc(C(F)(F)F)cc1 [Example 3, 2-(S)-[4-(((2-(Dimethylamino)ethyl)ethylamino)carbonyl)phenoxy]-3,3-diethyl-N-[1-(R)-(4-(trifluoromethyl)phenyl)butyl]-4-oxo-1-azetidinecarboxamide]
Human CYP-3A4 enzyme
  CYP-3A4 Induction % of Rifampicin response @ 10 μM: 0%
[4]
  kinact/KI: 804000 M⁻¹ s⁻¹
CYP3A4
  P450 CYP-3A4 Time-Dependent Inhibition rate @ 10 μM (#1): 0.014 min⁻¹

— patent publication US20100216761A1, “NOVEL AZETIDINONES USEFUL AS INHIBITORS OF ELASTASE” (priority 2007, published 2010)
